The text below walks through data of patent publication US7022484B2, “Methods for treating neuropathological states and neurogenic inflammatory states and methods for identifying compounds useful therein” (Board of Regents, The University of Texas System, priority 2000, dated 2006).

“Also recorded” adds a separate entry of the source.

For assay [1], the system named is TNFα. Description: TNFα release by ELISA from SW982 synovial cells treated with NMDA and ACPD. Type of assay: cell-based, human. As to conditions: 24 hours, NMDA (5 mM) and ACPD (5 mM), K252a (100 nM). The protocol: The cultured cell lines used in these studies were the human neuroblastoma clonal line, SHSY5Y, and the human synovial sarcoma clonal line, SW982, both available through the American Tissue Type Culture Collection (item number CRL 2266 and HTB-93, respectively). Cells were grown in Dulbecco's Modification of Eagles Medium (DMEM) without L-glutamine, with 4.5 grams/Liter glucose, and with 10% bovine fetal serum in a tissue culture incubator at 37° C. in a gaseous mixture of O2/CO2. Cells were routinely split as necessary to maintain proper cell density. Cells were removed from plates by adding TRYPSIN/EDTA in Hank's Balanced Salt solution. After cell counts, approximately 10,000 cells were plated per well in a culture dish. For experiments, the cells were plated into 35 mm Petri dishes or 6- or 24-well plates as needed.
For detection of released Tumor Necrosis Factor alpha (TNFα) and some western blot experiments, cells were exposed to the two glutamate agonists NMDA (5 mM) and ACPD (5 mM), in the presence or absence of the tyrosine kinase inhibitors Genistein […] or K252a (100 nM). […]
The release of the inflammatory mediator and initiator of inflammatory cascades, TNFα was measured by ELISA using a commercially available kit (R&D Quantikine, Catalog Number DTA50) specific for human TNFα. […]
(In general: ELISA stands for enzyme-linked immunosorbent assay.)

In assay [2] the test system is rat arthritis model. Description: Knee joint circumference and joint temperature in kaolin/carrageenan knee joint inflammation model. In kind it is in vivo. To be noted: 4 hours after kaolin/carrageenan; spinal pre-treatment. The procedure:
An acute inflammatory response restricted to the knee joint can be induced by the injection of 3% kaolin and 3% carrageenan (in sterile saline; 0.1 ml; pH 7.4) into the joint cavity while the animal is briefly anesthetized with sodium methohexital (Brevital, 60 mg/kg, i.p.). Kaolin and carrageenan were obtained from Fisher Scientific, St. Louis, Mo. The knee joint is flexed manually until the rat awakes (approximately 5–10 minutes). In this arthritis model in the awake rat, localized joint swelling, as well as limping and guarding of the limb, are well developed at 4 hours (Sluka et al., Pain, 59, 95–100 (1994)) when behavioral testing begins.
Knee joint circumference is measured in centimeters (cm) with a flexible tape measure around the center of the knee joint while the joint is held in extension as done with patients in the clinical setting as an indication of increases in joint volume. The knee joints of anesthetized rats are measured before (baseline) and four hours following injection of the knee joint with kaolin and carrageenan.
Temperature readings were documented numerically with a temperature probe after the rat is reanesthetized with sodium pentobarbital (50 mg/kg, i.p.) just prior to perfusion with aldehydes for histological preservation. Comparative temperature differences were made between the baseline temperature and the temperature four hours after induction of inflammation.

Assay [3] deals with NMDA receptor subunit NR1. Description: Immunocytochemical localization of NMDA receptor subunit NR1 in spinal cord of arthritic rats. In kind it is in vivo, rat. To be noted: Genistein 1 mM spinal pre-treatment. The text has this: Cycloheximide (100 milligrams per kilogram (mg/kg) intraperitoneal (i.p.) was used in some studies to determine if the alterations observed for the NMDA NR1 receptor subunit could be attributed to newly synthesized NR1 protein.
Twenty-four rats in 3 separate groups were used for immunocytochemical studies. One group of rat (n=8) was a naive control. The other 2 groups (n=16) of rats received surgical placement of the microdialysis fiber placement. On the day after microdialysis fiber placement, the animals were treated spinally with either Genistein (1 mM) or vehicle (50% DMSO in aCSF) for 1.5 hours (n=8 for each group). Then the left knee joint of all sixteen rats was injected with 0.1 ml of kaolin and carrageenan.
Animals were anesthetized and transcardially perfused with a brief warm saline rinse followed by fixative solution (4% paraformaldehyde in 0.1 M phosphate buffer, pH 7.4). The tissues were soaked overnight in 30% buffered sucrose and cut at 30 microns on a sliding microtome. For light microscopy, the tissues from animals (n=8) were permeabilized with a 50% buffered ethanol treatment. Tissue sections were then stained immunocytochemically for glutamate receptor subunit NR1 and phospho-NR1. Primary antibodies to be used for staining include anti-NMDA NR1 NMDA receptor (0.5–1 milligrams per milliliter (mg/ml)) purchased from Chemlcon Inc. (Pittsburgh, Pa.). Other neurotransmitter and receptor primary antibodies against NMDA NR2C, mGluR1, and mGluR5 were used as stain specificity controls. The primary antibodies were diluted in phosphate buffered saline (PBS, pH 7.6) with 0.1% BSA for overnight incubation on the spinal cord tissues. After washing in PBS, the tissue sections were incubated in the appropriate secondary antibody, either anti-mouse or anti-rabbit IgG (1:100, 30 minutes) and in avidin-biotin complex (ABC, 1:100, Vector Laboratories, Burlingame, Calif.). Sections were reacted with diaminobenzidine (DAB) solution (1.5 mg/ml) as the chromogen and peroxide (0.5 mg/ml) to produce a dense reaction product. To further intensify the reaction product particularly for visualization of nuclear rings, some tissues were reacted with colloidal gold conjugated IgG and reacted with a silver chloride solution to produce an intense black reaction product (Takizawa et al., J. Histochemistry & Cytochemistry, 42, 1615–1623 (1994)).
Immunocytochemical controls included sections processed in the absence of the primary or secondary antibody or ABC reagents. The specificity of the transmitter antibodies was confirmed by appearance of a single band by Western blot. In addition to use of the C-terminus NR1 antibody from ChemIcon, an antibody directed to the N-terminus of the NR1 protein was used as control (1 mg/ml; BD PharMingen, San Diego, Calif.). […]

As to `O=c1c(-c2ccc(O)cc2)coc2cc(O)cc(O)c12` [Genistein, 5,7-Dihydroxy-3-(4-hydroxyphenyl)-4H-1-benzopyran-4-one; 4′,5,7-trihydroxy-isoflavone], the “NMDA/ACPD-promoted release of TNFα” value in assay [1] is “completely abolished”. Also, in assay [2], the joint circumference entry is listed as “expected increases” and the joint temperature result is “expected increases”. Besides, the “staining for NR1 in spinal cord” value in assay [3] (4 hours, cycloheximide 100 mg/kg i.p.) is “about half that observed in arthritic rats and was not significantly increased above levels seen in normal rats; also recorded: greatly reduced expression increases for NR1 that were not significantly different from baseline”. Further, the “nuclear localization of NR1” value in assay [3] is on record as “greatly reduced; also recorded: inhibited the shift in the pattern of NMDA NR1 protein staining”.
